Measurements as given in ChEMBL document CHEMBL4507295 (2021).

How the values were obtained:
[1] = target: Mast/stem cell growth factor receptor Kit (Homo sapiens) (UniProt P10721); conditions: Compound concentration 1000.0 nM
[2] = target: Histamine H2 receptor (Homo sapiens) (UniProt P25021); conditions: Compound concentration 10.0 uM
[3] = target: Serine/threonine-protein kinase LATS1 (Homo sapiens) (UniProt O95835); conditions: Compound concentration 1000.0 nM
[4] = target: Calcium/calmodulin-dependent protein kinase kinase 1 (Homo sapiens) (UniProt Q8N5S9); conditions: Compound concentration 1000.0 nM
[5] = target: Sigma intracellular receptor 2 (Homo sapiens) (UniProt Q5BJF2); conditions: Compound concentration 10.0 uM
[6] = target: Calcium/calmodulin-dependent protein kinase type 1G (Homo sapiens) (UniProt Q96NX5); conditions: Compound concentration 1000.0 nM
[7] = target: Mitogen-activated protein kinase 14 (Homo sapiens) (UniProt Q16539); conditions: Compound concentration 1000.0 nM
[8] = target: Cytoplasmic tyrosine-protein kinase BMX (Homo sapiens) (UniProt P51813); conditions: Compound concentration 1000.0 nM
[9] = target: Serine/threonine-protein kinase Chk2 (Homo sapiens) (UniProt O96017); conditions: Compound concentration 1000.0 nM
[10] = target: GABA-A receptor; anion channel (Rattus norvegicus) (UniProt O09028+P15431+P18506+P18508+P19969+P20236+P23574+P23576+P28471+P28473+P30191+P62813+P63079+P63138+Q91ZM7+Q9ES14); conditions: Compound concentration 10.0 uM
[11] = target: Testis-specific serine/threonine-protein kinase 3 (Homo sapiens) (UniProt Q96PN8); conditions: Compound concentration 1000.0 nM
[12] = target: Serine/threonine-protein kinase Nek10 (Homo sapiens) (UniProt Q6ZWH5); conditions: Compound concentration 1000.0 nM
[13] = target: Tyrosine-protein kinase receptor Tie-1 (Homo sapiens) (UniProt P35590); conditions: Compound concentration 1000.0 nM
[14] = target: Dual specificity protein kinase CLK2 (Homo sapiens) (UniProt P49760); conditions: Compound concentration 1000.0 nM
[15] = target: Serine/threonine-protein kinase 3 (Homo sapiens) (UniProt Q13188); conditions: Compound concentration 1000.0 nM
[16] = target: Serine/threonine-protein kinase LATS2 (Homo sapiens) (UniProt Q9NRM7); conditions: Compound concentration 1000.0 nM
[17] = target: Tyrosine-protein kinase SYK (Homo sapiens) (UniProt P43405); conditions: Compound concentration 1000.0 nM
[18] = target: Ribosomal protein S6 kinase alpha-6 (Homo sapiens) (UniProt Q9UK32); conditions: Compound concentration 1000.0 nM
[19] = target: T1, 5-hydroxytryptamine receptor 3A (Homo sapiens) (UniProt P46098); conditions: Compound concentration 10.0 uM
T1 sequence (whole entry): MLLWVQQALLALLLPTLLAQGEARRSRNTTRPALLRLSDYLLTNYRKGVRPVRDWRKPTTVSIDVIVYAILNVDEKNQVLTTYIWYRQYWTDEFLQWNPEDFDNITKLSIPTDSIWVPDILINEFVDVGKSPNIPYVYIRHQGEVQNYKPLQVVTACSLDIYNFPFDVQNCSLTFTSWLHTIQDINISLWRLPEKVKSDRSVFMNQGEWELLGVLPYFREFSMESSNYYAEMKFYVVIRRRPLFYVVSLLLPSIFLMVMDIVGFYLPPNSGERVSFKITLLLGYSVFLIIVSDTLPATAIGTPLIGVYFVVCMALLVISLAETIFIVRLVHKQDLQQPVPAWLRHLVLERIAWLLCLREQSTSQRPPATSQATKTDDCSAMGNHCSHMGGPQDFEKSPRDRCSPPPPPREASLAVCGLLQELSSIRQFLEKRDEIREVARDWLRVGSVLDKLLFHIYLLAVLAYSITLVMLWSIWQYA

[20] = target: Cyclin-dependent kinase 9 (Homo sapiens) (UniProt P50750); conditions: Compound concentration 1000.0 nM
[21] = target: Activin receptor type-2B (Homo sapiens) (UniProt Q13705); conditions: Compound concentration 1000.0 nM
[22] = test system: Tyrosine-protein kinase ABL1 (Homo sapiens), P00519 [E255K]; conditions: Compound concentration 1000.0 nM
[23] = target: Non-receptor tyrosine-protein kinase TYK2 (Homo sapiens) (UniProt P29597); conditions: Compound concentration 1000.0 nM
[24] = target: Inhibitor of nuclear factor kappa-B kinase subunit beta (Homo sapiens) (UniProt O14920); conditions: Compound concentration 1000.0 nM
[25] = target: Cyclin-dependent kinase-like 2 (Homo sapiens) (UniProt Q92772); conditions: Compound concentration 1000.0 nM
[26] = target: Serine/threonine-protein kinase RIO2 (Homo sapiens) (UniProt Q9BVS4); conditions: Compound concentration 1000.0 nM
[27] = target: cAMP-dependent protein kinase catalytic subunit alpha (Homo sapiens) (UniProt P17612); conditions: Compound concentration 1000.0 nM
[28] = target: Platelet-derived growth factor receptor alpha (Homo sapiens) (UniProt P16234); conditions: Compound concentration 1000.0 nM
[29] = target: Proto-oncogene tyrosine-protein kinase Src (Homo sapiens) (UniProt P12931); conditions: Compound concentration 1000.0 nM
[30] = test system: Tyrosine-protein kinase ABL1 (Homo sapiens), P00519 [F317I]; conditions: Compound concentration 1000.0 nM
[31] = target: Macrophage-stimulating protein receptor (Homo sapiens) (UniProt Q04912); conditions: Compound concentration 1000.0 nM
[32] = target: Serine/threonine-protein kinase pim-3 (Homo sapiens) (UniProt Q86V86); conditions: Compound concentration 1000.0 nM
[33] = target: Phosphatidylinositol 4-phosphate 5-kinase type-1 gamma (Homo sapiens) (UniProt O60331); conditions: Compound concentration 1000.0 nM
[34] = test system: Receptor-type tyrosine-protein kinase FLT3 (Homo sapiens), P36888 [D835Y]; conditions: Compound concentration 1000.0 nM
[35] = target: Misshapen-like kinase 1 (Homo sapiens) (UniProt Q8N4C8); conditions: Compound concentration 1000.0 nM
[36] = test system: Tyrosine-protein kinase ABL1 (Homo sapiens), P00519 [H396P]; conditions: Compound concentration 1000.0 nM
[37] = target: Serine/threonine-protein kinase pim-1 (Homo sapiens) (UniProt P11309); conditions: Compound concentration 1000.0 nM
Chain of Serine/threonine-protein kinase pim-1 (Homo sapiens) (P11309 whole entry, looked up): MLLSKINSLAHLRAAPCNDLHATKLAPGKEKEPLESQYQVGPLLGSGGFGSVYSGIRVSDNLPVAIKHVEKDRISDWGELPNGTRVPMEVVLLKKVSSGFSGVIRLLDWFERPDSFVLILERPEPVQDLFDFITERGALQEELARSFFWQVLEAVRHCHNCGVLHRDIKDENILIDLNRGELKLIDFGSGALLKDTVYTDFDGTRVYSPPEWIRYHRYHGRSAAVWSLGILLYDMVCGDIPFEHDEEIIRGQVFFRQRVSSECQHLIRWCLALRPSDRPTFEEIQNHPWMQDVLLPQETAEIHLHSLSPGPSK

Chain of Proto-oncogene tyrosine-protein kinase Src (Homo sapiens) (P12931 2-536 limits assumed): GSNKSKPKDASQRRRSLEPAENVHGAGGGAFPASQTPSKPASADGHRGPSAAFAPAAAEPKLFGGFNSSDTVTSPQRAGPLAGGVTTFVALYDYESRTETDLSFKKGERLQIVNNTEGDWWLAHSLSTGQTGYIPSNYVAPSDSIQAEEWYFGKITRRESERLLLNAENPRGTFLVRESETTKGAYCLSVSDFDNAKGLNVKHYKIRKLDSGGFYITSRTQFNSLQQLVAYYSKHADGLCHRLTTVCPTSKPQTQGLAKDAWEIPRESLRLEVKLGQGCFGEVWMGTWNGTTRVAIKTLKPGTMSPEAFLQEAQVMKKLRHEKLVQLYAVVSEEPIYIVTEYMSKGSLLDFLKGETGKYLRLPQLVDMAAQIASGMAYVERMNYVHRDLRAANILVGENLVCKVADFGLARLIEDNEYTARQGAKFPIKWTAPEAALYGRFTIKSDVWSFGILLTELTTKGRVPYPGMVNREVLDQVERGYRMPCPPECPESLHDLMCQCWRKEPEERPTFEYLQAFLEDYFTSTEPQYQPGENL
Chain of Serine/threonine-protein kinase 3 (Homo sapiens) (Q13188 whole entry): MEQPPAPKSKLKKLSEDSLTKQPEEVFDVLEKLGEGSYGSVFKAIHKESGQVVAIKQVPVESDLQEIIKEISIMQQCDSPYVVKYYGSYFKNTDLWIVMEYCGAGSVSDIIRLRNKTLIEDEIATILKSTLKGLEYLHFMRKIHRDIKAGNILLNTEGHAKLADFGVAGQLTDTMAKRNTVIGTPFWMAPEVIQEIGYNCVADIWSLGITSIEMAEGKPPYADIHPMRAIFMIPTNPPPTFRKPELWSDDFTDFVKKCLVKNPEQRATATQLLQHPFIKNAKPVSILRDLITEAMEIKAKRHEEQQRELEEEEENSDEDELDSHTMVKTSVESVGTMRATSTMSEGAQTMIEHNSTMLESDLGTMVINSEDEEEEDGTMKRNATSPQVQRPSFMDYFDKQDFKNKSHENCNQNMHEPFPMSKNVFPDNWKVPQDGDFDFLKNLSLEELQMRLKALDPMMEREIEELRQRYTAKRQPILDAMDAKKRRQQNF
Chain of Mitogen-activated protein kinase 14 (Homo sapiens) (Q16539 whole entry): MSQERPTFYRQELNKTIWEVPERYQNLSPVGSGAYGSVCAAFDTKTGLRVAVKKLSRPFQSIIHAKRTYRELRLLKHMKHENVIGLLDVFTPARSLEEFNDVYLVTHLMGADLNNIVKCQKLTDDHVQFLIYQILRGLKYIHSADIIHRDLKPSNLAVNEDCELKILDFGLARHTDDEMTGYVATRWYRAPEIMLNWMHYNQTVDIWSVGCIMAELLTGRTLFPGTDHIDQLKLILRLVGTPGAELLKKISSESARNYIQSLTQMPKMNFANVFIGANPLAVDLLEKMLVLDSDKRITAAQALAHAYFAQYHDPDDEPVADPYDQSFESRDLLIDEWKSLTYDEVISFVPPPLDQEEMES
Chain of Testis-specific serine/threonine-protein kinase 3 (Homo sapiens) (Q96PN8 whole entry): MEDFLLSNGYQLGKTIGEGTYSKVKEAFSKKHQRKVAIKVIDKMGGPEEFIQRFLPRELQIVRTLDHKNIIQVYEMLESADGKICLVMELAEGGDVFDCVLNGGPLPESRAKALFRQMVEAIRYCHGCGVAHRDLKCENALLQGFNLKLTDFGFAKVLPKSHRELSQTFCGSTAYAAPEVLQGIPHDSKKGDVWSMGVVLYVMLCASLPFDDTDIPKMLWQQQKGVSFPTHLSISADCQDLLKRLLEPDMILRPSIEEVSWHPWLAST
Chain of Mast/stem cell growth factor receptor Kit (Homo sapiens) (P10721 whole entry): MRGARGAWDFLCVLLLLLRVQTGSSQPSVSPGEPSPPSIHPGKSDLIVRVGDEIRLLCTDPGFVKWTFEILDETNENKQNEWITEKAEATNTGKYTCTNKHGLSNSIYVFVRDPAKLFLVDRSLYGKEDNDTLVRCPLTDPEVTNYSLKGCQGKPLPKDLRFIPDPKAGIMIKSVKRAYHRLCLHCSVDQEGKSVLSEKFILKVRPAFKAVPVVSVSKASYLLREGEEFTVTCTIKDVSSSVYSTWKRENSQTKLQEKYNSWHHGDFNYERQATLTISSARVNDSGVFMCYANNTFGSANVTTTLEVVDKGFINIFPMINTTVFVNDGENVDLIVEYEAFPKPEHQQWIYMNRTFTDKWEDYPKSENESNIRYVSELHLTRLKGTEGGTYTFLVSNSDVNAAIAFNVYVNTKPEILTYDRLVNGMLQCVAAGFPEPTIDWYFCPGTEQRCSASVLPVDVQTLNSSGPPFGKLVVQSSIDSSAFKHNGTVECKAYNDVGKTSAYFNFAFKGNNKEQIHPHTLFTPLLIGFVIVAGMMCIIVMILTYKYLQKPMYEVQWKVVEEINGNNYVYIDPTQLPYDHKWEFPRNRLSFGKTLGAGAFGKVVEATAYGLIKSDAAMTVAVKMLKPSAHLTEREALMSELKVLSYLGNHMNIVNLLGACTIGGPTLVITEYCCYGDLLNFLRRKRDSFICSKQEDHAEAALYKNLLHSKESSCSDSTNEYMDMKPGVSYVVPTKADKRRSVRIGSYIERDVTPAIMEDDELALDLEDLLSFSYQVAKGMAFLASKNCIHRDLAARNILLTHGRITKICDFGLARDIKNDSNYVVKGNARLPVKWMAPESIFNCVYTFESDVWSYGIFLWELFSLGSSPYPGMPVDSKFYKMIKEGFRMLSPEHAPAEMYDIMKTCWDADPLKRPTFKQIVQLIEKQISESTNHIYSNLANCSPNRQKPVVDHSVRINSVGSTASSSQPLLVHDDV
Chain of Activin receptor type-2B (Homo sapiens) (Q13705 whole entry): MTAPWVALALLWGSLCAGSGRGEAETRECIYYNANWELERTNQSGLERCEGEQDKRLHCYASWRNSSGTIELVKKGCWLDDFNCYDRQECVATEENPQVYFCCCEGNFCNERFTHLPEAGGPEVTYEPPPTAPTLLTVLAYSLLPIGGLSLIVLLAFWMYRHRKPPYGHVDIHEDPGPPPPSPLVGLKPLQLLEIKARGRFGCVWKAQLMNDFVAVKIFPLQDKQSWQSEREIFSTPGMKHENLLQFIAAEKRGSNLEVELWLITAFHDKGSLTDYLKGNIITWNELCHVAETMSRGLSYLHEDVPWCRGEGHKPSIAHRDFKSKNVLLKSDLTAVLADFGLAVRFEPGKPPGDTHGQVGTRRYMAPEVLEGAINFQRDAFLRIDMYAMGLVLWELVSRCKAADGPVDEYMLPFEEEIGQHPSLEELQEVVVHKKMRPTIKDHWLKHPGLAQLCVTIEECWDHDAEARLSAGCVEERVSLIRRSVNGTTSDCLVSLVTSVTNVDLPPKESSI
Chain of Serine/threonine-protein kinase Chk2 (Homo sapiens) (O96017 whole entry): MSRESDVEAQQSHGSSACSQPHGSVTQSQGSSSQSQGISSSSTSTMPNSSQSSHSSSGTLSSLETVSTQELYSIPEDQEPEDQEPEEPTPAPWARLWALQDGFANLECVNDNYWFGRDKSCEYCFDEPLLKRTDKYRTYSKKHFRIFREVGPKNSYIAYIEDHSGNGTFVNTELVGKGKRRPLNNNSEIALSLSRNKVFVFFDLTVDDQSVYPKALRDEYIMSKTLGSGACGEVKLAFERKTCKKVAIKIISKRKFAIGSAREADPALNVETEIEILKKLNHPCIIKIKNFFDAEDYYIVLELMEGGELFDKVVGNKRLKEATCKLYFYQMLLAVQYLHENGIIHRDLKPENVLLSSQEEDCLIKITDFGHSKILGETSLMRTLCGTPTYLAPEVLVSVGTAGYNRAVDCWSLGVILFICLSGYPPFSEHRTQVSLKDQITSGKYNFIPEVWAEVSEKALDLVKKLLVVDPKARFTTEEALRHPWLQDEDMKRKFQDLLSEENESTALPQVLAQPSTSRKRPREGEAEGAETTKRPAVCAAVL
Chain of Histamine H2 receptor (Homo sapiens) (P25021 whole entry): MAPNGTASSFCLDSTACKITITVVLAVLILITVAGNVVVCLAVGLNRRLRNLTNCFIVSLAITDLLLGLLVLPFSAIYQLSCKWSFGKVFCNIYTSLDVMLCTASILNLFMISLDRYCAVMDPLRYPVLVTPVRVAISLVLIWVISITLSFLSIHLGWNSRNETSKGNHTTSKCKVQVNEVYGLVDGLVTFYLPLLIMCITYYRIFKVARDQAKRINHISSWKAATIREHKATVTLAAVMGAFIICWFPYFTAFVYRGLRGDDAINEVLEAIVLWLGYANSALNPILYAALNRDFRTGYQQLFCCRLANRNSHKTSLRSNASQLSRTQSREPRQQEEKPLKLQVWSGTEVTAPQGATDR
Chain of Sigma intracellular receptor 2 (Homo sapiens) (Q5BJF2 whole entry): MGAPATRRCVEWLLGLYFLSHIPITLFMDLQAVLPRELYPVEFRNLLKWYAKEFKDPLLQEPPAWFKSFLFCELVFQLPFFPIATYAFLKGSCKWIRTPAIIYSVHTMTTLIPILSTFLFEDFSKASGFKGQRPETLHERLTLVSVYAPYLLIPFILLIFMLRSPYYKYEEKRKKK

N#CC1(c2ccccn2)CCN(Cc2cc(C(=O)N3CCCC3)c(=O)n3ccccc23)CC1
inactive: residual activity [1] 100% | inhibition [2] 3.1% | residual activity [3] 100% | residual activity [4] 100% | inhibition [5] 24.1% | residual activity [6] 100% | residual activity [7] 86% | residual activity [8] 84% | residual activity [9] 92% | inhibition [10] 21.8% | residual activity [11] 100% | residual activity [12] 96% | residual activity [13] 98% | residual activity [14] 100% | residual activity [15] 92% | residual activity [16] 93% | residual activity [17] 92% | residual activity [18] 91% | inhibition [19] 6.59% | residual activity [20] 88% | residual activity [21] 75% | residual activity [22] 87% | residual activity [23] 100% | residual activity [24] 99% | residual activity [25] 93% | residual activity [26] 95% | residual activity [27] 88% | residual activity [28] 97% | residual activity [29] 56% | residual activity [30] 87% | residual activity [31] 100% | residual activity [32] 99% | residual activity [33] 68% | residual activity [34] 71% | residual activity [35] 89% | residual activity [36] 77% | residual activity [37] 100%

N#CC1(c2ccccn2)CCN(Cc2cc(C(=O)O)c(=O)n3ccccc23)CC1 [MSD-M1PAM]
inactive: residual activity [1] 87% | inhibition [2] 11.7% | residual activity [3] 100% | residual activity [4] 100% | inhibition [5] 5.17% | residual activity [6] 100% | residual activity [7] 100% | residual activity [8] 88% | residual activity [9] 87% | inhibition [10] 8.92% | residual activity [11] 100% | residual activity [12] 93% | residual activity [13] 100% | residual activity [14] 100% | residual activity [15] 98% | residual activity [16] 95% | residual activity [17] 92% | residual activity [18] 97% | inhibition [19] 12% | residual activity [20] 99% | residual activity [21] 97% | residual activity [22] 100% | residual activity [23] 93% | residual activity [24] 100% | residual activity [25] 100% | residual activity [26] 92% | residual activity [27] 88% | residual activity [28] 90% | residual activity [29] 100% | residual activity [30] 65% | residual activity [31] 100% | residual activity [32] 100% | residual activity [33] 89% | residual activity [34] 95% | residual activity [35] 92% | residual activity [36] 80% | residual activity [37] 99%
